Test results: patent US7193085B2, “Acid Red 82 in mixtures” (Lanxess Deutschland GmbH, priority 2002, dated 2007)

Experiment: Solubility of the dye
Type: physicochemical

## Cc1ccc(Nc2ccc3c4c(cc(=O)n3C)-c3ccccc3C(=O)c24)c(S(=O)(=O)[O-])c1.[Na+] [Acid Red 80, C. I. Acid Red 80]
  solubility compared with Acid Red 82: less than that of Acid Red 82
